Source: the NIST ThermoML archive (doi:10.1021/acs.jced.6b00812)
Numbers after ± are expanded uncertainties.

Assay: molar heat capacity at constant pressure; mn = molality of the nth substance listed, in mol/kg
Settings: 100 kPa, Liquid, Small sample (50 mg) DSC

[Cl-].[Cl-].[Mg+2] [magnesium chloride] + O
molar heat capacity at constant pressure [J/K/mol]
Settings	m1 = 0.58	m1 = 1.12	m1 = 1.67	m1 = 2.19	m1 = 2.74	m1 = 3.36	m1 = 3.88	m1 = 4.46	m1 = 5.04	m1 = 5.63
168.15 K	–	–	–	–	–	49.33 ± 1.1	49.35 ± 1.2	–	–	–
178.15 K	–	–	–	–	–	51.34 ± 1.3	51.42 ± 1.2	51.55 ± 1.2	–	–
188.15 K	–	–	–	–	–	53.36 ± 1.3	53.27 ± 1.4	53.21 ± 1.4	–	–
198.15 K	–	–	–	–	–	55.38 ± 1.3	55.11 ± 1.4	54.88 ± 1.4	–	–
208.15 K	–	–	–	–	–	57.17 ± 1.3	56.72 ± 1.4	56.54 ± 1.4	–	–
218.15 K	–	–	–	–	–	58.74 ± 1.3	58.34 ± 1.4	57.97 ± 1.4	57.68 ± 1.5	57.28 ± 1.5
228.15 K	–	–	–	62 ± 1.5	61.04 ± 1.5	60.09 ± 1.6	59.49 ± 1.4	59.15 ± 1.4	58.66 ± 1.5	58.54 ± 1.5
238.15 K	–	–	65.07 ± 1.6	63.46 ± 1.5	62.34 ± 1.5	61.43 ± 1.6	60.87 ± 1.6	60.34 ± 1.4	59.88 ± 1.5	59.54 ± 1.5
248.15 K	–	68.59 ± 1.8	65.88 ± 1.6	64.3 ± 1.7	63.42 ± 1.5	62.33 ± 1.6	61.8 ± 1.6	61.29 ± 1.4	60.61 ± 1.5	60.55 ± 1.5
258.15 K	72.24 ± 1.7	68.98 ± 1.8	66.69 ± 1.6	65.35 ± 1.7	64.29 ± 1.5	63.23 ± 1.6	62.49 ± 1.6	62 ± 1.4	61.59 ± 1.5	61.3 ± 1.5
268.15 K	72.24 ± 1.7	69.57 ± 1.8	67.5 ± 1.6	66.19 ± 1.7	65.16 ± 1.5	64.12 ± 1.6	63.41 ± 1.6	62.72 ± 1.7	62.08 ± 1.5	62.06 ± 1.5
278.15 K	72.24 ± 1.7	69.96 ± 1.8	67.9 ± 1.6	66.61 ± 1.7	65.59 ± 1.5	64.57 ± 1.6	63.87 ± 1.6	63.19 ± 1.7	62.81 ± 1.5	62.56 ± 1.5
288.15 K	72.43 ± 1.7	70.16 ± 1.8	68.31 ± 1.6	67.23 ± 1.7	66.02 ± 1.7	65.02 ± 1.6	64.33 ± 1.6	63.67 ± 1.7	63.3 ± 1.5	63.06 ± 1.5
298.15 K	72.43 ± 1.7	70.55 ± 1.8	68.71 ± 1.6	67.44 ± 1.7	66.45 ± 1.7	65.47 ± 1.6	64.79 ± 1.6	64.14 ± 1.7	63.55 ± 1.5	63.56 ± 1.5

[Ca+2].[Cl-].[Cl-] [calcium chloride] + O
molar heat capacity at constant pressure [J/K/mol]
Settings	m1 = 0.49	m1 = 1.17	m1 = 1.83	m1 = 2.51	m1 = 3.14	m1 = 3.8	m1 = 4.41	m1 = 5.1	m1 = 5.76	m1 = 6.39
168.15 K	–	–	–	–	–	56.81 ± 1.4	58.42 ± 1.5	–	–	–
178.15 K	–	–	–	–	–	57.77 ± 1.4	59.16 ± 1.5	–	–	–
188.15 K	–	–	–	–	–	58.49 ± 1.4	59.66 ± 1.5	–	–	–
198.15 K	–	–	–	–	–	59.45 ± 1.4	60.4 ± 1.5	–	–	–
208.15 K	–	–	–	–	–	60.41 ± 1.4	61.15 ± 1.5	–	–	–
218.15 K	–	–	–	–	–	61.37 ± 1.4	61.9 ± 1.5	–	–	–
228.15 K	–	–	–	–	62.08 ± 1.6	62.09 ± 1.4	62.64 ± 1.5	–	–	–
238.15 K	–	–	–	63.47 ± 1.5	63 ± 1.6	63.05 ± 1.4	63.39 ± 1.5	64.08 ± 1.6	–	–
248.15 K	–	68.18 ± 1.6	65.68 ± 1.7	64.35 ± 1.5	63.92 ± 1.6	63.77 ± 1.7	64.13 ± 1.5	64.6 ± 1.6	–	–
258.15 K	72.68 ± 1.9	68.77 ± 1.8	66.51 ± 1.7	65.23 ± 1.5	64.61 ± 1.6	64.48 ± 1.7	64.63 ± 1.5	65.37 ± 1.6	66.09 ± 1.6	–
268.15 K	72.49 ± 1.9	69.37 ± 1.8	67.14 ± 1.7	65.89 ± 1.5	65.3 ± 1.6	65.2 ± 1.7	65.38 ± 1.5	65.89 ± 1.6	66.62 ± 1.6	–
278.15 K	72.68 ± 1.9	69.77 ± 1.8	67.77 ± 1.7	66.55 ± 1.5	65.76 ± 1.6	65.68 ± 1.7	65.87 ± 1.7	66.66 ± 1.6	67.42 ± 1.6	67.93 ± 1.7
288.15 K	72.68 ± 1.9	69.97 ± 1.8	68.19 ± 1.7	66.99 ± 1.5	66.22 ± 1.6	66.16 ± 1.7	66.37 ± 1.7	67.18 ± 1.6	67.96 ± 1.6	68.2 ± 1.7
298.15 K	72.87 ± 1.9	70.37 ± 1.8	68.61 ± 1.7	67.43 ± 1.8	66.91 ± 1.6	66.64 ± 1.7	67.12 ± 1.7	67.7 ± 1.6	68.49 ± 1.6	68.76 ± 1.7

[Cl-].[K+] [potassium chloride] + O
molar heat capacity at constant pressure [J/K/mol]
Settings	m1 = 0.53	m1 = 0.97	m1 = 1.41	m1 = 1.86	m1 = 2.34	m1 = 2.79	m1 = 3.25	m1 = 3.72	m1 = 4.15	m1 = 4.62
238.15 K	–	–	–	–	–	–	–	–	65.84 ± 1.5	–
248.15 K	–	–	–	70.06 ± 1.8	–	68.17 ± 1.7	67.44 ± 1.7	66.86 ± 1.7	66.5 ± 1.5	–
258.15 K	74.76 ± 1.9	72.91 ± 1.7	71.45 ± 1.7	70.26 ± 1.8	69.43 ± 1.6	68.59 ± 1.7	68.08 ± 1.7	67.29 ± 1.7	66.94 ± 1.5	–
268.15 K	74.2 ± 1.9	72.72 ± 1.7	71.45 ± 1.7	70.46 ± 1.8	69.64 ± 1.6	68.79 ± 1.7	68.29 ± 1.7	67.72 ± 1.7	67.16 ± 1.8	66.63 ± 1.6
278.15 K	73.83 ± 1.9	72.72 ± 1.7	71.64 ± 1.7	70.66 ± 1.8	69.84 ± 1.6	69 ± 1.7	68.5 ± 1.7	67.93 ± 1.7	67.38 ± 1.8	66.85 ± 1.6
288.15 K	73.83 ± 1.9	72.72 ± 1.7	71.64 ± 1.7	70.66 ± 1.8	69.84 ± 1.6	69.21 ± 1.7	68.71 ± 1.7	67.93 ± 1.7	67.6 ± 1.8	67.08 ± 1.6
298.15 K	73.83 ± 1.9	72.72 ± 1.7	71.64 ± 1.7	70.86 ± 1.8	70.04 ± 1.6	69.42 ± 1.7	68.71 ± 1.7	68.15 ± 1.7	67.6 ± 1.8	67.08 ± 1.6
